Source: patent US20060165722A1 (priority 2005, published 2006)
Entries after “also recorded” stand apart in the source; their conditions may differ.

Key:
C57BL/6 female mice = details: mouse, in vivo
tetanus toxin = system: tetanus toxin; set-up: species or system mice; details: mouse, in vivo
human monocytes = test: FACS analysis of human monocytes stimulated with AT1002; format: cell-based; details: 18 hours
human macrophages = test: FACS analysis of human macrophages stimulated with AT1002; format: cell-based
[1] = AT1002 20 micrograms/ml and 1 microgram/ml

Row | Substance | geometric mean titers of anti-TT IgA in vaginal secretions (C57BL/6 female mice) | geometric mean titers of anti-TT serum IgA (C57BL/6 female mice) | geometric mean titers of anti-TT serum IgG (C57BL/6 female mice) | relatively most effective AT1002 dose (anti-TT serum IgG) (C57BL/6 female mice) | protection against tetanus toxin challenge (paralysis and death) (tetanus toxin) | expression of CD80 (B7-1) on monocytes (human monocytes) | expression of CD86 (B7.2) on monocytes (human monocytes) | membrane expression of HLA-DR on monocytes (human monocytes; [1]) | membrane expression of HLA-I on monocytes (human monocytes; [1]) | expression of CD40 on macrophages (human macrophages; 18 hours) | membrane expression of CD86 on macrophages (human macrophages; 18 hours) | membrane expression of HLA-DR on macrophages (human macrophages; 18 hours) | membrane expression of HLA-I on macrophages (human macrophages; 18 hours) | expression of CD80 on macrophages (human macrophages; 18 hours, not reported in the figure) | upregulation of HLA-I and HLA-DR molecules compared with LPS (human macrophages; macrophages, LPS positive control) | range of anti-TT IgG titer (tetanus toxin)
1 | FCIGRL [AT1002] | induces IgA against the co-administered antigen in a mucosal district far from the site of immunization | induces serum IgA against the co-administered antigen | higher as compared to those of animals immunized with TT alone; also recorded: higher than those observed after four doses | 30 nmol | all protected | not upregulated | not upregulated | upregulates | upregulates | upregulates | strongly upregulates | strongly upregulates | strongly upregulates | also upregulated | more efficient than LPS | –
2 | Tetanus toxoid [TT alone] | – | – | – | – | – | – | – | – | – | – | – | – | – | – | – | 256-4,096
